Laboratory results published in patent US20120010075A1 (priority 2009, published 2012).
Read-outs that look alike come from different tables or passages of the source.

Key:
Phytophthora infestans = type: in vivo, Phytophthora infestans on tomato; details: applied 24 h before inoculation, assessed 7 days after inoculation
[1] = tested on: Leptosphaeria nodorum (LEPTNO); experiment: In vitro fungitoxicity of hydrazones with and without copper towards Leptosphaeria nodorum (Example 26); type: cell-based; details: 72 h at 25° C.; for inhibition of growth at 0.05 µg/mL: Parastagonospora nodorum, 72 h, read-out: LEPTNO % Inhn. Minus Copper Observed; for inhibition of growth at 0.05 µg/mL / LEPTNO % Inhn. Minus Copper Observed: copper-minus medium
[2] = hydrazone 50 ppm + 50 μM CuCl2.2H2O, tomato
[3] = compound 0.05 μg/mL, copper-plus medium (CuCl2.2H2O)
[4] = hydrazone 50 ppm with 50 μM CuCl2.2H2O, tomato late blight
[5] = test compound Concn. 0.05 μg/mL
[6] = copper-plus medium (CuCl2 10 μM), test compound Concn. 0.05 μg/mL

Compound | TLB % Control (Phytophthora infestans; [2]) [%] | inhibition of growth at 0.05 µg/mL ([1]; compound 0.05 μg/mL) [%] | LEPTNO % Inhn. Plus Copper Observed [1, 3] [%] | melting point [°C] | TLB % Control (Phytophthora infestans; [4]) [%] | inhibition of growth at 0.05 µg/mL [1, 5] [%] | LEPTNO % Inhn. Plus Copper Observed [1, 6] [%] | LEPTNO % Inhn. Minus Copper Observed ([1]; compound 0.05 μg/mL) [%]
O=C(N/N=C/c1cc(Cl)cc(Cl)c1O)c1cc(Cl)cc(Cl)c1 [Example 79] | 84.4 | 12.2 | 97.1 | 248 to 249 |  |  |  | 
O=C(N/N=C/c1c(O)cccc1C(F)(F)F)c1ccccc1 [Example 297] |  |  |  | 228 to 230 | 69.5 | 0 | 96.4 | 
COc1ccc(C(=O)N/N=C(\C)c2cccc(Cl)c2O)cc1 [Example 499] |  |  |  | 203 to 204 | 85.0 | 0 | 97.4 | 
O=C(N/N=C/c1c(C(F)(F)F)ccc(Cl)c1O)c1cccc(Cl)c1 [Example 451] |  |  |  | 242 to 245 | 100.0 | 4.6 | 100.0 | 
Cc1cc(O)c(/C=N/NC(=O)c2ccccc2)cc1Cl [Example 239] | 66.1 | 0.1 | 97.8 | 206 to 208 |  |  |  | 
COc1ccc(/C(C)=N/NC(=O)c2ccc(Cl)cc2)c(O)c1OC [Example 557] |  |  |  | 230 to 235 | 90.0 | 13 | 95.7 | 
O=C(N/N=C/c1c(C(F)(F)F)ccc(Cl)c1O)c1ccc([N+](=O)[O-])cc1 [Example 454] |  |  |  | 305 to 307 | 100.0 | 12.4 | 100.0 | 
C/C(=N\NC(=O)c1ccc(C)cc1)c1ccc(Cl)cc1O [Example 254] | 0.0 | 8.3 | 98.1 | 254 to 256 |  |  |  | 
O=C(N/N=C/c1cc(Br)cc(F)c1O)c1ccccc1 [Example 410] |  |  |  | 211 to 212 | 95.0 | 1.9 | 97.6 | 
Cc1cccc(C(=O)N/N=C/c2c(C(F)(F)F)ccc(Cl)c2O)c1 [Example 447] |  |  |  | 219 to 221 | 100.0 | 20 | 96.6 | 
O=C(N/N=C/c1ccc(Cl)c(Cl)c1O)c1ccc([N+](=O)[O-])cc1 [Example 361] |  |  |  | 237 to 243 | 97.0 | 3.3 | 96.4 | 
C/C(=N\NC(=O)c1ccc(C)cc1C)c1ccccc1O [Example 33] | 50.9 |  | 93.1 | 188 to 190 |  |  |  | 0.0
O=C(N/N=C/c1cccc(C(F)(F)F)c1O)c1cccc(Cl)c1 [Example 347] |  |  |  | 185 to 187 | 97.0 | 13.8 | 98.4 | 
COc1ccc(Br)c(/C=N/NC(=O)c2ccccc2)c1O [Example 243] | 86.4 | 5.3 | 96.7 | 187 to 189 |  |  |  | 
O=C(N/N=C/c1cc(Cl)cc(Br)c1O)c1ccc(C(F)(F)F)cc1 [Example 164] | 96.5 | 10.8 | 98.6 | 250 to 251 |  |  |  | 
O=C(N/N=C/c1cccc(Cl)c1O)c1ccc(F)cc1 [Example 426] |  |  |  | 194 to 198 | 98.0 | 34.8 | 97.3 | 
O=C(N/N=C/c1cc([N+](=O)[O-])cc(Br)c1O)c1cccc(Cl)c1 [Example 201] | 50.9 | 4 | 96.0 | 276 to 280 |  |  |  | 
O=C(N/N=C/c1ccc(Cl)cc1O)c1cccc(F)c1 [Example 389] |  |  |  | 218 to 222 | 95.0 | 7.7 | 97.6 | 
C/C(=N\NC(=O)c1cccc(C)c1)c1cc(F)cc(F)c1O [Example 574] |  |  |  | 215 to 216 | 93.0 | 2.8 | 98.3 | 
C/C(=N\NC(=O)c1ccccc1Cl)c1ccc(Cl)cc1O [Example 255] | 28.0 | 3.6 | 98.2 | 183 to 184 |  |  |  | 

Compound | TLB % Control (Phytophthora infestans; [2]) [%] | inhibition of growth at 0.05 µg/mL ([1]; compound 0.05 μg/mL) [%] | LEPTNO % Inhn. Plus Copper Observed [1, 3] [%] | melting point [°C] | TLB % Control (Phytophthora infestans; [4]) [%] | inhibition of growth at 0.05 µg/mL [1, 5] [%] | LEPTNO % Inhn. Plus Copper Observed [1, 6] [%] | LEPTNO % Inhn. Minus Copper Observed ([1]; compound 0.05 μg/mL) [%]
Cc1ccc(C(=O)N/N=C/c2cc(Br)cc(Br)c2O)c(C)c1 [Example 32] | 74.6 |  | 94.4 | 192 to 194 |  |  |  | 0.0
CCc1ccc(C(=O)N/N=C/c2cc(Cl)cc(Cl)c2O)cc1 [Example 260] | 81.0 | 11.2 | 97.1 | 286 to 289 |  |  |  | 
COc1ccc(/C(C)=N/NC(=O)c2ccc(C)cc2)c(O)c1 [Example 283] | 67.0 | 0 | 95.9 | 206 to 207 |  |  |  | 
Cc1ccc(C(=O)N/N=C/c2cc(C(F)(F)F)cc(Cl)c2O)c(O)c1 [Example 331] |  |  |  | 255 to 257 | 100.0 | 22.8 | 97.8 | 
C/C(=N\NC(=O)c1ccccc1O)c1cc(Cl)ccc1O [Example 515] |  |  |  | 298 to 318 | 47.0 | 0 | 97.6 | 
C/C(=N\NC(=O)c1cccc(C)c1)c1cc(Br)ccc1O [Example 289] | 45.0 | 0 | 97.6 | 227 to 233 |  |  |  | 
O=C(N/N=C/c1cccc(C(F)(F)F)c1O)c1ccc([N+](=O)[O-])cc1 [Example 350] |  |  |  | 253 to 255 | 97.0 | 11.3 | 94.9 | 
COc1ccc(/C(C)=N/NC(=O)c2ccccc2)c(O)c1 [Example 280] | 88.0 | 2.2 | 98.2 | 211 to 213 |  |  |  | 
C/C(=N\NC(=O)c1ccccc1C)c1cc(C(F)(F)F)ccc1O [Example 528] |  |  |  | 200 to 203 | 73.0 | 8.7 | 97.7 | 
O=C(N/N=C/c1cc(C(F)(F)F)ccc1O)c1cccc([N+](=O)[O-])c1 [Example 441] |  |  |  | 218 to 220 | 96.0 | 0 | 100.0 | 
COc1cccc(/C(C)=N/NC(=O)c2ccc(Br)cc2)c1O [Example 465] |  |  |  | 176 to 177 | 93.0 | 1.7 | 96.5 | 
O=C(N/N=C/c1cc(Cl)cc(Br)c1O)c1cccc([N+](=O)[O-])c1 [Example 416] |  |  |  | 167 to 226 | 93.0 | 4.3 | 97.5 | 
O=C(N/N=C(\CCc1ccccc1)c1ccccc1O)c1ccccc1Cl [Example 49] | 0.7 | 14.6 | 97.1 | 173 to 177 |  |  |  | 
Cc1ccc(C(=O)N/N=C/c2c(O)cccc2Cl)c(O)c1 [Example 408] |  |  |  | 273 to 276 | 94.0 | 8.4 | 79.7 | 
COc1cccc(/C(C)=N/NC(=O)c2ccc(C(F)(F)F)cc2)c1O [Example 466] |  |  |  | 175 to 176 | 69.0 | 2.7 | 97.9 | 
Cc1ccc(C(=O)N/N=C/c2cc(C(F)(F)F)ccc2O)c(O)c1 [Example 445] |  |  |  | 264 to 271 | 90.0 | 13.2 | 100.0 | 
C/C(=N\NC(=O)c1ccc(C(F)(F)F)cc1)c1cc(Br)cc(Br)c1O [Example 548] |  |  |  | 255 to 257 | 98.0 | 6.7 | 97.5 | 
Cc1cccc(C(=O)N/N=C/c2cc(Cl)ccc2O)c1 [Example 419] |  |  |  | 188 to 196 | 90.0 | 3.2 | 94.9 | 
O=C(N/N=C/c1cc(Cl)ccc1O)c1ccc(F)cc1 [Example 421] |  |  |  | 234 to 243 | 94.0 | 8.2 | 96.6 | 
O=C(N/N=C/c1ccc(Cl)cc1O)c1ccccc1C(F)(F)F [Example 396] |  |  |  | 197 to 200 | 49.0 | 0 | 95.5 | 
